In one experiment the test system is B16. The experiment is described as follows: In vitro concentration which causes 50% inhibition of proliferation of B16 melanoma cells, activity relative to taxol (ED50=1). Type of experiment: functional, Mus musculus.
Experiment [1] addresses Tubulin alpha chain (Sus scrofa) (UniProt P02550). The experiment is described as follows: In vitro concentration which causes polymerization of 50% of the tubulin, activity relative to taxol (ED50=1). Type of experiment: functional.
In a further experiment the test system is HCT-116. Put plainly: In vitro concentration which causes 50% inhibition against HCT116 cell line, activity relative to taxol (ED50=1). It is filed as functional, Homo sapiens.

In ChEMBL document CHEMBL1159141, “Synthesis and biology of substituted 3-phenyl taxol analogues” (1994) one finds ED50 ratio data, which are given here for ten compounds.

SMILES strings stand for the structures.

Tubulin alpha chain (Sus scrofa), sequence (P02550 whole entry, looked up): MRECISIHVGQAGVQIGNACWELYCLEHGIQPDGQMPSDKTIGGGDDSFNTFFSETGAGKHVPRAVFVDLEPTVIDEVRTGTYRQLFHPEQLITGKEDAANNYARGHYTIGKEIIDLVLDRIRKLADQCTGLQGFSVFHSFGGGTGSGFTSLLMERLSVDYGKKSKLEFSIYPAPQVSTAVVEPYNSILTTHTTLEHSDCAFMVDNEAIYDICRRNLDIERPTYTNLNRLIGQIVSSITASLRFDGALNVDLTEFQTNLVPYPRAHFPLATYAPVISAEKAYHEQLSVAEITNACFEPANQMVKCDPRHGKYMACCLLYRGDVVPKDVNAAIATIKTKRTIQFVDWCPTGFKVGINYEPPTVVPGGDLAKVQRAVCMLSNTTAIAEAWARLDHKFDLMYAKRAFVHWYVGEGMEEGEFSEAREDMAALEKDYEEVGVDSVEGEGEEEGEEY

For the compound `CC(=O)O[C@H]1C(=O)[C@@]2(C)[C@H]([C@H](OC(=O)c3ccccc3)[C@]3(O)C[C@H](OC(=O)[C@H](O)[C@H](NC(=O)c4ccccc4)c4ccc(Cl)c(Cl)c4)C(C)=C1C3(C)C)[C@]1(OC(C)=O)CO[C@@H]1C[C@@H]2O`, the ED50 ratio in the experiment with B16 stood at 40; in experiment [1], 7.1.

`CC(=O)O[C@H]1C(=O)[C@@]2(C)[C@H]([C@H](OC(=O)c3ccccc3)[C@]3(O)C[C@H](OC(=O)[C@H](O)[C@H](NC(=O)c4ccccc4)c4ccc(F)cc4)C(C)=C1C3(C)C)[C@]1(OC(C)=O)CO[C@@H]1C[C@@H]2O`: the values for the ED50 ratio (in the experiment with B16; in experiment [1]) were 1.2 and 1.1, respectively.

As to `CC(=O)O[C@H]1C(=O)[C@@]2(C)[C@H]([C@H](OC(=O)c3ccccc3)[C@]3(O)C[C@H](OC(=O)[C@H](O)[C@H](NC(=O)c4ccccc4)c4ccc(C)cc4)C(C)=C1C3(C)C)[C@]1(OC(C)=O)CO[C@@H]1C[C@@H]2O`, the ED50 ratio in the experiment on B16 is 3; in experiment [1], 2.4.

As for `CC(=O)O[C@H]1C(=O)[C@@]2(C)[C@H]([C@H](OC(=O)c3ccccc3)[C@]3(O)C[C@H](OC(=O)[C@H](O)[C@H](NC(=O)c4ccccc4)c4ccc(Cl)cc4)C(C)=C1C3(C)C)[C@]1(OC(C)=O)CO[C@@H]1C[C@@H]2O`, the ED50 ratio in the experiment on B16 amounted to 2.2; in experiment [1], 1.9.

`CC(=O)O[C@H]1C(=O)[C@@]2(C)[C@H]([C@H](OC(=O)c3ccccc3)[C@]3(O)C[C@H](OC(=O)[C@H](O)[C@H](NC(=O)c4ccccc4)c4ccccc4C)C(C)=C1C3(C)C)[C@]1(OC(C)=O)CO[C@@H]1C[C@@H]2O`: the results for the ED50 ratio (in the experiment with B16; in experiment [1]) were >33 and 5.1, respectively.

In the case of `CC(=O)O[C@H]1C(=O)[C@@]2(C)[C@H]([C@H](OC(=O)c3ccccc3)[C@]3(O)C[C@H](OC(=O)[C@H](O)[C@H](NC(=O)c4ccccc4)c4cccc(N(C)C)c4)C(C)=C1C3(C)C)[C@]1(OC(C)=O)CO[C@@H]1C[C@@H]2O`, the ED50 ratio with B16 amounted to 5.8; in experiment [1] it was 4.6.

Consider `CC(=O)O[C@H]1C(=O)[C@@]2(C)[C@H]([C@H](OC(=O)c3ccccc3)[C@]3(O)C[C@H](OC(=O)[C@H](O)[C@@H](NC(=O)c4ccccc4)c4ccccc4)C(C)=C1C3(C)C)[C@]1(OC(C)=O)CO[C@@H]1C[C@@H]2O` [PACLITAXEL], for which the ED50 ratio (in the experiment on B16; in experiment [1]) was 1 each time.

`CC(=O)O[C@H]1C(=O)[C@@]2(C)[C@H]([C@H](OC(=O)c3ccccc3)[C@]3(O)C[C@H](OC(=O)[C@H](O)[C@H](NC(=O)c4ccccc4)c4cccc(Cl)c4)C(C)=C1C3(C)C)[C@]1(OC(C)=O)CO[C@@H]1C[C@@H]2O`: the ED50 ratio in the experiment with B16 is 6.7; in experiment [1], 4.4.

Consider `COc1ccc([C@@H](NC(=O)c2ccccc2)[C@@H](O)C(=O)O[C@H]2C[C@@]3(O)[C@@H](OC(=O)c4ccccc4)[C@@H]4[C@]5(OC(C)=O)CO[C@@H]5C[C@H](O)[C@@]4(C)C(=O)[C@H](OC(C)=O)C(=C2C)C3(C)C)cc1`, for which the ED50 ratio in the experiment on B16 stood at 1; in experiment [1] it was 0.5.

As for `CC(=O)O[C@H]1C(=O)[C@@]2(C)[C@H]([C@H](OC(=O)c3ccccc3)[C@]3(O)C[C@H](OC(=O)[C@H](O)[C@H](NC(=O)c4ccccc4)c4ccc([N+](=O)[O-])cc4)C(C)=C1C3(C)C)[C@]1(OC(C)=O)CO[C@@H]1C[C@@H]2O`, the ED50 ratio was determined as 35 in the experiment on HCT-116 and 1.1 in experiment [1].
